Molecules are shown by their SMILES. Activity calls are given as the source filed them. The calls are words filed in the database; no cut-off is given here.

Assay [1] has as its system Dipetalogaster maximus. Kind of assay: Antiparasitic activity against ecto parasite Dipetalogaster maximus in mouse at a dose of 190 mg/kg; Active. Format: functional, organism-based. Also noted: dose 190 mg/kg.
The test system of assay [2] is Fasciola hepatica. Nature of the assay: Antiparasitic activity against endo parasite Fasciola hepatica in mouse at a dose of 190 mg/kg; Active. Format: functional, organism-based. Also on record: dose 190 mg/kg.

Take `COc1cc2cc(C)c(C(C)=O)c(O)c2c(O)c1-c1c(OC)cc2cc(C)c(C(C)=O)c(O)c2c1O`: the outcome in assay [1] and in assay [2] was Active.

For the origin of these results see ChEMBL document CHEMBL1129869, “SPORANDOL: A NOVEL ANTIPARASITIC BINAPHTHALENE FROM CHRYSOSPORIUM MERIDARIUM” (Bioorg Med Chem Lett, 1997).
